Like-named read-outs stand apart in the source and are kept apart here.
Experiments:
[1] = tested on: Dα6 and C. elegans ric3 expressed in D.Mel-2 cells; assay: [3H]DHSA radioligand displacement binding in D.Mel-2 cells; parameters: species or system Drosophila melanogaster
Procedure: D.Mel-2 cells were seeded into 75 cm^2 flasks at 1.9×10^7 cells/flask in Drosophila SFM containing antibiotic/antimicotic and incubated overnight at 27° C. The transfection mix was prepared in 12×75 mm polystyrene tubes by mixing 1630 μl sterile water, 40 μg pIB/V5-HisA/ric3, 40 μg pIB/V5-HisA/30D and 250 μl CellFectin. The reagents were mixed gently and incubated at room temp for 15 minutes. While the transfection mix was incubating, the cells were washed with 10 ml fresh Drosophila SFM without antibiotics; this media was then removed from the cells and replaced with 6 ml fresh Drosophila SFM without antibiotics. To the transfection mix was added 4 ml Drosophila SFM without antibiotics and this was then transferred to the flask. The reagents were gently mixed by pipetting up and down and then incubated overnight at 27° C.
D.Mel-2 cells were purchased from Invitrogen (Carlsbad, Calif.) and grown in disposable 125 ml shake flasks using 50 ml volume. Cells were subcultured to 3×10^5 cells/ml twice per week in Drosophila SFM containing 5 ml/L Antibiotic-Antimycotic (100×) (Gibco, Carlsbad, Calif.). D.Mel-2 cells were seeded into a 12-well plate at a cell density of 5×10^5 cells/well and incubated overnight at 27° C. In a 12×75 mm polystyrene tube 6 μg pIB/V5-HisA/ric3, 82 μl sterile H2O and 12 μl CellFectin (Invitrogen, Carlsbad, Calif.) were added. The sample was mixed gently and incubated at room temperature for 15 minutes. While the transfection mix was incubating, media from one well of cells was removed and replaced with 1 ml fresh media without antibiotics. After 15 minutes, the media was removed from cells. To this transfection mix, 0.5 ml media (no antibiotics) was added. This solution was then added to the cells. The mixture was incubated for 48 hrs at 27° C. After 48 hrs, the cells were scraped from the plate using a cell scraper and split into 4 wells of a 6-well plate each containing 2 ml Drosophila SFM with antibiotics. Cells were allowed to attach for 1 hr at 27° C.; the media was removed and replaced with 2 ml fresh media containing 25 μg/ml Blasticidin S (Invitrogen, Carlsbad, Calif.). Cells were incubated at 27° C. for 5 days. After 5 days, the cells were scraped loose from the wells and combined into one tube. Cells were spun down at 600 rpm in a tabletop centrifuge; the media was removed and the cells were resuspended into a 50 ml shake culture in fresh Drosophila SFM containing 25 μg/ml Blasticidin S. The cells were incubated at 27° C./140 rpm. Cells were subcultured twice weekly back to cell density of 3×10^5 cells/ml. After 4 weeks the selection was cut back to 10 μg/ml Blasticidin S. After 3 months of growth under selection, a 12 well plate was seeded at 5×10^5 cells/well and cells were incubated over night at 27° C. The following reagents were added to each of three 12×75 mm polystyrene tubes: 2 μg pMT/V5-HisA/30D, 0.15 μg pCoHygro (Invitrogen, Carlsbad, Calif.) (a […] ratio of expression plasmid:selection plasmid), 89 μl sterile H2O and 12 μl CellFectin. The samples were mixed gently and incubated at room temp for 15 minutes and then transfected as described above. After 24 hrs, the media containing transfection mix was removed and replaced with 1 ml fresh media containing antibiotics. The incubation was continued at 27° C. for another 24 hrs. Cells were scraped loose from the 12-well plate (3 wells) and split into 2, 6-well plates. Cells were allowed to attach for 6 hours at which point, the media was replaced with 2 ml/well fresh media containing 200, 150, 100 or 50 μg/ml hygromycin B. The incubation was continued at 27° C.; every 4-5 days, the media was replaced with media containing hygromycin every 4-5 days. After 2 weeks of selection in the plates, the cells from the 200 μg/ml selection, were scraped loose and then gently pelleted and resuspended in 25 ml fresh media containing 200 μg/ml hygromycin B and then placed into a 125 ml shake flask.

[2] = tested on: Drosophila melanogaster flies of a spinosyn-resistant strain; assay: Adult fly mortality screen, spinosyn-resistant flies; assay type: in vivo; conditions: for mortality: 100 ppm in 10% sucrose via cotton wick, 72 hours post-treatment, spinosyn-resistant flies; for resistance of spinosyn A resistant flies compared to wild-type flies (based on LD50): dose-response data, resistant vs wild-type flies
Procedure: (§1) Ten adult Drosophila melanogaster flies (5 males and 5 females) of the Oregon wild-type strain and ten adult flies of a spinosyn-resistant strain were used per treatment. Two sets (of 10 flies) were set-up per treatment. Stocks of spinosyn A and a 21-butenyl-spinosyn analog were formulated at 1000 ppm in 2:1 acetone:water and then diluted to the required concentration in 10% sucrose. Vials received 500 ul of treatment (or solvent for controls) via cotton wicks (approximately ¼ inch) and flies were added to each vial and capped with a cotton plug. Flies were monitored over 72 hours post-treatment while being maintained at room-temperature with a 12:12 light:dark cycle.
(§2) In addition, the spinosyn A resistant flies were >100-fold resistant (based on LD50) to the new class of spinosyns, represented by the 21-butenyl spinosyns.

[3] = tested on: Drosophila melanogaster flies of the Oregon wild-type strain; assay: Adult fly mortality screen, wild-type flies; assay type: in vivo; conditions: 100 ppm in 10% sucrose via cotton wick, 72 hours post-treatment
Procedure: as §1, §2

Dα6-nicotinic receptor = assay type: binding, Drosophila melanogaster
Procedure: Xenopus oocytes were injected as previously described for the electrophysiological assay and were used intact for binding assays.
Two main radioligands were used in binding assays: the conventional α7 radioligand, [^3H]methyllycaconitine (MLA) and [^3H]dihydrospinosyn A (DHSA). For both radioligands, the Binding Buffer used consisted of 10 mM sodium phosphate (7.2-7.4). […] For Xenopus oocyte binding assays, oocytes were pooled (2-5 oocytes) and transferred to 1 ml Binding Buffer. This was followed by gently aspirating the Binding Buffer and replacing with fresh Binding Buffer twice, to wash out any residual oocyte bathing media. The final volume of buffer added to each pool of oocytes was 50-100 μl. […] Subsequent dilutions were made in Binding Buffer. The final concentration of solvent was maintained at less than 0.1% in each well. 25 μl of unlabeled competing compounds were added to the cell suspensions or oocytes. Cells or cell extracts were pre-incubated with compounds for 15-30 minutes, at 10° C. (for [^3H]DHSA) and room-temperature for [^3H]MLA. The samples were gently shaken using a plate shaker. […] Filter mats were dried in an oven at 60° C. and the radioactivity from samples was counted for three minutes with a Wallac MicroBeta Counter (Wallac, Conn.) using Meltilex solid-scintillant (PerkinElmer, Finland). […]

[4] = tested on: 30D (nicotinic acetylcholine receptor alpha-6 subunit); assay type: cell-based, Drosophila melanogaster; also: key: '−' indicates a negligible current was induced; '+' indicates a small amplitude current; '++' indicates a moderate amplitude current; '++++' indicates a large amplitude current
Procedure: (§3) Xenopus laevis (Xenopus 1, Ann Arbor, Mich.; Nasco, Fort Atkinson, Wis.) were anesthetized by bathing in a solution of 2 g/l tricaine methane sulfonate, and oocytes were surgically removed from the frog and placed in a culture solution that consisted of 96 mM NaCl, 2 mM KCl, 1.8 mM CaCl2, 1 mM MgCl2, 5 mM HEPES, 2.5 mM Na-pyruvate, 100 units/ml penicillin, and 0.1 mg/ml streptomycin, pH 7.6. Oocytes were dispersed in a nominally zero Ca^2+ protease treatment solution to defolliculate the oocytes. The protease treatment solution consisted of either 88 mM NaCl, 2.5 mM KCl, 1 mM MgCl2, 5 mM HEPES, 2.5 mM Na-pyruvate, 100 units/ml penicillin, and 0.1 mg/ml streptomycin, pH 7.6 plus 1.5 mg/ml collagenase IA (Sigma Chemical Co., St. Louis, Mo.). After isolation, the oocytes were thoroughly rinsed and returned to the above Ca^2+ containing culture solution and stored at 18° C.
(§4) Synthesis of cRNA was performed as follows: Plasmid DNA was linearized with one of the following restriction enzymes; Not I, Xho I or Nhe I. The linearized DNA was subsequently used as template for cRNA synthesis using T7 mMessage mMachine kit (Ambion, Austin, Tex.) following the manufacturer's instructions.
(§5) Micropipettes for injection of cRNA into Xenopus oocytes were pulled on a DMZ-Universal Puller (Zeitz-Instruments, München, Germany). The cRNA to be injected was drawn up into the micropipette with negative pressure. Approximately 10-50 ng of cRNA was injected into the oocytes by applying positive pressure using a Nanoject II oocyte injector (Drummond Scientific Co., Broomall, Pa.). Nucleic acid was introduced into the oocytes as follows: (1) nicotinic acetylcholine receptor alpha-6 subunit subunit (30D) (2) nicotinic alpha-7 receptor subunit (34E); (3) nicotinic acetylcholine receptor alpha-6 subunit and C. elegans ric-3 (30D and ric-3); (4) nicotinic alpha-7 receptor subunit and C. elegans ric-3 (34E and ric-3); (5) nicotinic acetylcholine receptor alpha-6 subunit and nicotinic alpha-7 receptor subunit (30D and 34E); and, (6) nicotinic acetylcholine receptor alpha-6 subunit, nicotinic alpha-7 receptor subunit and C. elegans ric-3 (30D, 34E and ric-3).
(§6) The control external solution for voltage clamp recordings consisted of 88 mM NaCl, 1 mM KCl, 0.41 mM CaCl2, 2.4 mM NaHCO3, 0.3 mM Ca(NO3)2, 0.82 mM MgSO4·7 H2O, and 15 mM HEPES, pH 7.6. The recording chamber was continuously perfused with a gravity-fed perfusion system. Nicotine (1 mM) was added to the external solution and then added to the perfusate for 30 seconds. Then, nicotine was washed from the external solution a minimum of 10 minutes. Thereafter, spinosyn A was dissolved in dimethylsulfoxide (DMSO) and then dissolved in the external solution at a final concentration of 10 μM and then added to the perfusate for 60 seconds. Then, the spinosyn A was washed from the external solution. The final concentration of DMSO never exceeded 0.1% (v/v).

30D/ric-3 = assay type: cell-based, Drosophila melanogaster; conditions: −60 mV, peak current
Procedure: as §3, §4, §5, §6

[5] = tested on: 34E (nicotinic acetylcholine receptor alpha-5 subunit); assay type: cell-based, Drosophila melanogaster; also: key: '−' indicates a negligible current was induced; '+' indicates a small amplitude current; '++' indicates a moderate amplitude current; '++++' indicates a large amplitude current
Procedure: as §3, §4, §5, §6

34E/ric-3 = assay type: cell-based, Drosophila melanogaster; also: key: '−' indicates a negligible current was induced; '+' indicates a small amplitude current; '++' indicates a moderate amplitude current; '++++' indicates a large amplitude current
Procedure: as §3, §4, §5, §6

34E/30D = assay type: cell-based, Drosophila melanogaster; parameters: key to the marks not given beside the values; conditions: −60 mV, peak current
Procedure: as §3, §4, §5
as §6, with “Then, the spinosyn A was washed from the external solution. The final concentration of DMSO never exceeded 0.1% (v/v).” left out

34E/30D/ric-3 = assay type: cell-based, Drosophila melanogaster; parameters: key to the marks not given beside the values; conditions: −60 mV, peak current; as to Spinosyn A Response: key: '−' indicates a negligible current was induced; '+' indicates a small amplitude current; '++' indicates a moderate amplitude current; '++++' indicates a large amplitude current
Procedure: as §3, §4, §5
as §6, with “Then, the spinosyn A was washed from the external solution. The final concentration of DMSO never exceeded 0.1% (v/v).” left out

[6] = D.Mel-2 cells expressing Dα6 and C. elegans ric3
[7] = spinosyn A 10 μM for 60 seconds

NS(=O)(=O)c1cc(C(=O)O)c(NCc2ccco2)cc1Cl [furosemide]
displacement of [3H]DHSA binding [1, 6]: No significant displacement

CC[C@H]1CCC[C@H](O)[C@@H](C)C(=O)C2=C[C@@H]3[C@@H](C=C[C@@H]4C[C@@H](O[C@@H]5O[C@@H](C)[C@H](OC)[C@@H](OC)[C@H]5OC)C[C@@H]34)[C@@H]2CC(=O)O1 [pseudoagylcone of spinosyn A]
displacement of [3H]DHSA binding [1, 6]: Nor was there significant displacement

21-butenyl spinosyn
mortality [2]: no significant mortality | resistance of spinosyn A resistant flies compared to wild-type flies (based on LD50) [2]: > 100 fold | mortality [3]: all wild-type flies exhibited mortality

C[C@@H]1O[C@H](C[N+](C)(C)C)C[C@H]1O [muscarine]
displacement of [3H]DHSA binding [1, 6]: not

CC[C@H]1CCC[C@H](O[C@H]2CC[C@H](N(C)C)[C@@H](C)O2)[C@@H](C)C(=O)C2=C[C@H]3[C@@H]4C[C@H](O[C@@H]5O[C@@H](C)[C@H](OC)[C@@H](OC)[C@H]5OC)C[C@H]4CC[C@H]3[C@@H]2CC(=O)O1 [dihydrospinosyn A]
displacement of [3H]DHSA binding [1, 6]: significant displacement

CCN1C[C@]2(COC(=O)c3ccccc3N3C(=O)C[C@H](C)C3=O)CC[C@H](OC)[C@@]34[C@@H]5C[C@H]6[C@H](OC)[C@@H]5[C@](O)(C[C@@H]6OC)[C@@](O)([C@@H](OC)[C@H]23)[C@@H]14 [MLA, methyllycaconitine]
displacement of [3H]DHSA binding [1, 6]: can be demonstrated at higher concentrations | overall affinity for this receptor complex ([1]; [3H]DHSA binding assay, D.Mel-2 cells): relatively poor

CN1COCN(Cc2cnc(Cl)s2)/C1=N\[N+](=O)[O-] [thiamethoxam]
displacement of [3H]DHSA binding [1, 6]: did not significantly displace

Clc1ccc(C2CC3CCC2N3)cn1 (stereo not shown) [epibatidine]
displacement of [3H]DHSA binding [1, 6]: did not significantly displace

C[N+](C)(C)CCOC(N)=O.[Cl-] [carbamylcholine]
displacement of [3H]DHSA binding [1, 6]: did not significantly displace

CN1[C@@H]2CC[C@H]1C[C@@H](OC(=O)C(CO)c1ccccc1)C2 (stereo partly shown) [atropine]
displacement of [3H]DHSA binding [1]: not

C[C@H](O)[C@H](O)[C@@H](O)[C@@H](O)C=O [rhamnose]
displacement of [3H]DHSA binding [1, 6]: No significant displacement

alpha-bungarotoxin
displacement of [3H]DHSA binding [1]: can be demonstrated at higher concentrations | overall affinity for this receptor complex [1]: relatively poor

CN1[C@@H](CC(=O)c2ccccc2)CCC[C@H]1C[C@H](O)c1ccccc1 [lobeline]
displacement of [3H]DHSA binding [1, 6]: did not significantly displace

CN1CCCC1c1cccnc1 (stereo not shown) [Nicotine, nicotine]
displacement of [3H]DHSA binding [1, 6]: displacement | % Displacement of Total Binding (Dα6-nicotinic receptor): 72% | Nicotine Response [4]: − | Nicotine Response (30D/ric-3; nicotine 1 mM for 30 seconds): + | Nicotine Response [5]: + | Nicotine Response (34E/ric-3): + | Nicotine Response (34E/30D; nicotine 1 mM for 30 seconds): ++ | Nicotine Response (34E/30D/ric-3; nicotine 1 mM for 30 seconds): ++++

O=[N+]([O-])NC1=NCCN1Cc1ccc(Cl)nc1 [imidacloprid]
displacement of [3H]DHSA binding [1, 6]: did not significantly displace

CC[C@H]1CCC[C@H](O[C@H]2CC[C@H](N(C)C)[C@@H](C)O2)[C@@H](C)C(=O)C2=C[C@@H]3[C@@H](C=C[C@@H]4C[C@@H](O[C@@H]5O[C@@H](C)[C@H](OC)[C@@H](OC)[C@H]5OC)C[C@@H]34)[C@@H]2CC(=O)O1 [Spinosyn A, spinosyn A]
displacement of [3H]DHSA binding [1, 6]: significant displacement | mortality [2]: no significant mortality | resistance of spinosyn A resistant flies compared to wild-type flies (based on LD50) [2]: at least 100 fold | % Displacement of Total Binding (Dα6-nicotinic receptor; 10 μM, [3H]MLA, intact Xenopus oocytes 3 days post-injection with Dmα6): 72% | Spinosyn A Response ([4]; spinosyn A 10 μM for 60 seconds, oocytes clamped to −60 mV, peak current, 30D): − | Spinosyn A Response (30D/ric-3; [7]): + | Spinosyn A Response ([5]; spinosyn A 10 μM for 60 seconds, −60 mV, peak current, 34E): − | Spinosyn A Response (34E/ric-3; spinosyn A 10 μM for 60 seconds, −60 mV, peak current, 34E/ric-3): − | Spinosyn A Response (34E/30D; [7]): ++ | Spinosyn A Response (34E/30D/ric-3; [7]): ++++ | mortality [3]: all wild-type flies exhibited mortality

From US20060269995A1, “Novel assays utilizing nicotinic acetylcholine receptor subunits” (priority 2005, published 2006)
